Article PMC4666646, “The Structure of the RNA-Dependent RNA Polymerase of a Permutotetravirus Suggests a Link between Primer-Dependent and Primer-Independent Polymerases” (PLoS Pathogens, 2015)

How the values were obtained:
TaVpol (TaV RdRP domain) [1] = molecular target: T1, TaVpol (TaV RdRP domain) (Thosea asigna virus, UniProt Q6A562); conditions: MnCl2, ssRNA template 5'-[…]; active site of molecule B, base stacked on Y611 and F613 of loop λ6
TaVpol (TaV RdRP domain) [2] = molecular target: T1, TaVpol (TaV RdRP domain); assay: X-ray crystal structure, […] Å; assay type: binding; set-up: RdRP domain, first 674 residues of replicase ORF1 (1257 residues), 75 kDa fragment released by proteolysis in Hi5 insect cells; N-terminal 6xHis tag and TEV site, tag cut for biochemical assays; dimer; conditions: MgCl2; triphosphate in rNTP tunnel (nucleoside disordered); second site in thumb subdomain (M556, T560, D563, E601)
TaVpol (TaV RdRP domain) [3] = molecular target: T1, TaVpol (TaV RdRP domain); assay: X-ray crystal structure, […] Å; assay type: binding; set-up: RdRP domain, first 674 residues of replicase ORF1 (1257 residues), 75 kDa fragment released by proteolysis in Hi5 insect cells; N-terminal 6xHis tag and TEV site, tag cut for biochemical assays; dimer; conditions: MgCl2; triphosphate in rNTP tunnel (nucleoside disordered); second site in thumb subdomain (M556, T560, D563, E601); remark: listed apart in the source
[4] = molecular target: TaVpol (RdRP domain of Thosea asigna virus ORF1, first 674 residues) (Thosea asigna virus); assay: SEC; analytic chromatography on a calibrated Superdex 200 5/150 column of purified proteins; for TaVpol also the final purification step on Superdex 200 HR 10/300 (50 mM MES pH 6.0, 500 mM NaCl, 10% glycerol, 5 mM DTT)
[5] = molecular target: T2, TaVpol (RdRP-containing N-terminal fragment of ORF1) (Thosea asigna virus, UniProt Q6A562 1-674); assay: X-ray crystallography; Complex formation: 1 mg/ml TaVpol, 1:1.5 protein:RNA, 50 mM MES pH 6.0, 200 mM NaCl, 10% glycerol, 5 mM DTT, 30 C 30 min; crystals at 20 C in 12% PEG 8K, 750 mM Li2SO4; conditions: protein: recombinant; tags: N-terminal 6xHis with TEV site (tag not removed for RNA complexes as far as stated); chain copies: 2; single strand
[6] = molecular target: T2, TaVpol (RdRP-containing N-terminal …); assay: X-ray crystallography; ATP, CTP, 5 mM MnCl2; 3.5 A; RNA density weak, only phosphate peaks in template channel, RNA not built; Complex formation: 1 mg/ml TaVpol, 1:1.5 protein:RNA, 50 mM MES pH 6.0, 200 mM NaCl, 10% glycerol, 5 mM DTT, 30 C 30 min; crystals at 20 C in 12% PEG 8K, 750 mM Li2SO4; conditions: protein: recombinant; tags: N-terminal 6xHis with TEV site (tag not removed for RNA complexes as far as stated); chain copies: 2; single strand

## Nc1ncnc2c1ncn2[C@@H]1O[C@H](COP(=O)(O)OP(=O)(O)OP(=O)(O)O)[C@@H](O)[C@H]1O [ATP]
TaVpol (TaV RdRP domain) [1]
  X-ray crystal structure, 3.5 Å: This density, was interpreted as the presence of a bound ATP molecule

## Nc1ccn([C@@H]2O[C@H](COP(=O)(O)OP(=O)(O)OP(=O)(O)O)[C@@H](O)[C@H]2O)c(=O)n1 [CTP]
TaVpol (TaV RdRP domain) [2]
  X-ray crystal structure, 2.25 Å: TaVpol-GTP and TaVpol-CTP co-crystals were also obtained in presence of MgCl2

## Nc1nc2c(ncn2[C@@H]2O[C@H](COP(=O)(O)OP(=O)(O)OP(=O)(O)O)[C@@H](O)[C@H]2O)c(=O)[nH]1 [GTP]
TaVpol (TaV RdRP domain) [3]
  X-ray crystal structure, 2.3 Å: TaVpol-GTP and TaVpol-CTP co-crystals were also obtained in presence of MgCl2

## TaVpol (RdRP domain of Thosea asigna virus ORF1, first 674 residues) (domain or fragment)
[4]
  stoichiometry N: 2

## GUAUACUACACCCAUUCGACUCCUG (ssRNA) [25-nt ssRNA template]
[5]
  binding result: binds

## CCCAUUCGACUCCUG (ssRNA) [15-nt ssRNA template]
[6]
  binding result: binds
